Laboratory results published in publication PMC10384572, “Marine Meroterpenoids Isolated from Gongolaria abies-marina Induce Programmed Cell Death in Naegleria fowleri” (Pharmaceuticals, 2023).

Legend:
Format in all cases: cell-based, Naegleria fowleri
[1] = tested on: N. fowleri ATCC® 30808 trophozoites; test: ATP production (Celltiter-Glo Luminescent Cell Viability Assay); settings: IC90 of compound, 24 h, 2 × 10^5 cells/mL
Protocol: The evaluation of the programmed cell death induction by the meroterpenoids was performed in the ATCC® 30808™ N. fowleri trophozoites. Cells were incubated over 24 h with the IC90 (Table 1) of the compounds at 37 °C. In these experiments, the presence of different metabolic events which are characteristics of the programmed cell death process were evaluated. For this, five different apoptosis events marker kits (the Hoechst 33342/Propidium Iodide, SYTOX™ Green kit, CellROX® Deep Reagent, JC-1 Mitochondrial Membrane Potential Detection Kit, and the Celltiter-Glo® Luminescent Cell Viability Assay) were used according to manufacturer’s instructions. Furthermore, the percentage of stained cells was determined after incubating the treated and non-treated cells with the stains. On the other hand, the measurement of the ATP production was also assessed in order to confirm the mitochondrial damage in the amoebae. For this, the Celltiter-Glo® Luminescent Cell Viability Assay (Promega Biotech Ibérica, Madrid, Spain) was used. The emitted luminescence, which is proportional to the ATP levels, was measured in an EnSpire® Multimode Plate Reader (Perkin Elmer, Madrid, Spain). Experiments were performed in triplicate. In both treated and untreated cells, the ATP production of a concentration of 2 × 10^5 cells/mL was measured.

[2] = tested on: N. fowleri ATCC® 30808 trophozoites; test: ROS production (CellROX Deep Red); settings: IC90 of compound, 24 h
Protocol: The evaluation of the programmed cell death induction by the meroterpenoids was performed in the ATCC® 30808™ N. fowleri trophozoites. Cells were incubated over 24 h with the IC90 (Table 1) of the compounds at 37 °C. In these experiments, the presence of different metabolic events which are characteristics of the programmed cell death process were evaluated. For this, five different apoptosis events marker kits (the Hoechst 33342/Propidium Iodide, SYTOX™ Green kit, CellROX® Deep Reagent, JC-1 Mitochondrial Membrane Potential Detection Kit, and the Celltiter-Glo® Luminescent Cell Viability Assay) were used according to manufacturer’s instructions. Furthermore, the percentage of stained cells was determined after incubating the treated and non-treated cells with the stains. The determination of ROS generation was carried out using the CellROX Deep Red fluorescent assay (Thermo Fisher Scientific) following manufacturer’s instructions. Briefly, N. fowleri’s trophozoites were incubated with compounds over 24 h at 37 °C. After that, the CellROX stain was added and incubated with the cells for 30 min in the dark. […] In the PCD assays, the number of stained and unstained cells was measured after the performance of the experiments. Regarding the JC-1 Mitochondrial Membrane Potential assays, the ratio between the emitted red fluorescence (at 595 nm) and green fluorescence (at 535 nm) was determined. For each kit, images (×40) with at least 80 cells were selected and analyzed. […] The graphs illustrate the mean value ± SD of three different tests. Finally, a one-way analysis of variance (ANOVA) was assessed to determine the statistical differences between the treated cells and the negative control amoebae, ** p < 0.01; *** p < 0.001; **** p < 0.0001 significant differences.

[3] = tested on: N. fowleri ATCC® 30808 trophozoites; test: Chromatin condensation detection (Hoechst 33342/propidium iodide); settings: IC90 of compound, 24 h
Protocol: The evaluation of the programmed cell death induction by the meroterpenoids was performed in the ATCC® 30808™ N. fowleri trophozoites. Cells were incubated over 24 h with the IC90 (Table 1) of the compounds at 37 °C. In these experiments, the presence of different metabolic events which are characteristics of the programmed cell death process were evaluated. For this, five different apoptosis events marker kits (the Hoechst 33342/Propidium Iodide, SYTOX™ Green kit, CellROX® Deep Reagent, JC-1 Mitochondrial Membrane Potential Detection Kit, and the Celltiter-Glo® Luminescent Cell Viability Assay) were used according to manufacturer’s instructions. Furthermore, the percentage of stained cells was determined after incubating the treated and non-treated cells with the stains. For the chromatin condensation assay, the Hoechst 33342 and the PI (Life Technologies, Madrid, Spain) were used. The images were captured in the EVOS™ M5000 Imaging System (Invitrogen by Thermo Fisher Scientific). A concentration of 5 × 10^5 cell/mL was seeded and incubated with compounds over 24 h. Three different cell population can be distinguished with this kit. Firstly, healthy cells will barely show blue fluorescence whereas in the presence of condensed chromatin an intense blue fluorescence corresponding to the Hoechst 33342 stain will be observable. Finally, dead cells will show red fluorescence due to the linkage between the nucleus and the PI. In the PCD assays, the number of stained and unstained cells was measured after the performance of the experiments. Regarding the JC-1 Mitochondrial Membrane Potential assays, the ratio between the emitted red fluorescence (at 595 nm) and green fluorescence (at 535 nm) was determined. For each kit, images (×40) with at least 80 cells were selected and analyzed. […] The graphs illustrate the mean value ± SD of three different tests. Finally, a one-way analysis of variance (ANOVA) was assessed to determine the statistical differences between the treated cells and the negative control amoebae, ** p < 0.01; *** p < 0.001; **** p < 0.0001 significant differences.

[4] = tested on: N. fowleri ATCC® 30808 trophozoites; test: Plasma membrane permeability (SYTOX Green); settings: IC90 of compound, 24 h
Protocol: The evaluation of the programmed cell death induction by the meroterpenoids was performed in the ATCC® 30808™ N. fowleri trophozoites. Cells were incubated over 24 h with the IC90 (Table 1) of the compounds at 37 °C. In these experiments, the presence of different metabolic events which are characteristics of the programmed cell death process were evaluated. For this, five different apoptosis events marker kits (the Hoechst 33342/Propidium Iodide, SYTOX™ Green kit, CellROX® Deep Reagent, JC-1 Mitochondrial Membrane Potential Detection Kit, and the Celltiter-Glo® Luminescent Cell Viability Assay) were used according to manufacturer’s instructions. Furthermore, the percentage of stained cells was determined after incubating the treated and non-treated cells with the stains.
The evaluation of the damage in the cell membrane permeability was conducted with the SYTOX Green assay (Life Technologies, Madrid, Spain). Amoebae were incubated with the molecules over 24 h at 37 °C. An EVOS™ M5000 Imaging System (Invitrogen by Thermo Fisher Scientific) was used to observe the trophozoites. Cells with compromised plasma membrane permeability show bright green fluorescence as the stain reaches the nucleus. However, no fluorescence is observed in negative control cells.
In the PCD assays, the number of stained and unstained cells was measured after the performance of the experiments. Regarding the JC-1 Mitochondrial Membrane Potential assays, the ratio between the emitted red fluorescence (at 595 nm) and green fluorescence (at 535 nm) was determined. For each kit, images (×40) with at least 80 cells were selected and analyzed. […] The graphs illustrate the mean value ± SD of three different tests. Finally, a one-way analysis of variance (ANOVA) was assessed to determine the statistical differences between the treated cells and the negative control amoebae, ** p < 0.01; *** p < 0.001; **** p < 0.0001 significant differences.

Row | SMILES | Decrease of ATP production compared to untreated cells [1] | ROS production versus negative control (CellROX deep red) [2] | Apoptotic phase suggested by Hoechst/PI staining [3] | Chromatin condensation (Hoechst 33342 stain) [3] | Propidium iodide (PI) red fluorescence [3] | Plasma membrane permeability damage (SYTOX green) [4]
1 | COc1c(C)cc(O)cc1C/C=C(\C)CC(=O)/C=C(\C)CCCC(C)=O [Cystomexicone B (6), cystomexicone B] | 65.59% | increased the level of ROS production | early apoptotic phase | induced DNA condensation | no red fluorescence | plasma membrane permeability damage
2 | COc1c(C)cc(O)cc1C/C=C(\C)CC(=O)C/C(C)=C/CC[C@@H](C)C(=O)/C=C/C(C)(C)O [Gongolarone B (1), gongolarone B] | 85.75% | increased the level of ROS production | late apoptotic phase | induced DNA condensation | showed red fluorescence | plasma membrane permeability damage
3 | COc1c(C)cc(O)cc1C/C=C(\C)CC(=O)/C=C(\C)CCC[C@@H](C)C(=O)/C=C/C(C)(C)O [1′Methoxyamentadione (3), 1′-methoxyamentadione] | 82.62% | increased the level of ROS production | early apoptotic phase | induced DNA condensation | no red fluorescence | plasma membrane permeability damage
4 | COc1c(C)cc(O)cc1C/C=C(\C)CC(=O)/C=C(/C)CCC[C@@H](C)C(=O)/C=C/C(C)(C)O [6Z-1′Methoxyamentadione (2), 6Z-1′-methoxyamentadione] | 92.49% | increased the level of ROS production | late apoptotic phase | induced DNA condensation | showed red fluorescence | plasma membrane permeability damage
